≈ marks a conversion by molar mass, not a printed value.
Assays:
Assay type in all cases: cell-based
[1] = system: SH-SY5Y cells; assay: Neurite outgrowth (neuroregeneration) test procedure in SH-SY5Y cells; details: SH-SY5Y cells pretreated with aphidicolin 5 days, mean ± SEM
Source text: The neuroregeneration activity for the compounds of this invention was confirmed in a standard pharmacological test procedure by evaluating rapamycin dialdehyde (Example 1) and rapamycin 29-enol (Example 2), as representative compounds of this invention, against SH-SY5Y cells in vitro [Gold et al., Exp Neurol 147:269-278, 1997]. Briefly, SH-SY5Y cells were placed in 6-well plate treated with aphidicolin for 5 days followed by the test compounds using 6-well plates. For controls, wells were untreated, or treated with nerve growth factor (NGF) alone. Test wells were treated with NGF plus Example 1 and Example 2, or rapamycin. Cells were photographed at 168 hours. Analysis of neuritic lengths was performed on photographic prints using a Houston Instrument HI-PAD digitizing tablet connected to an IBM XT computer with appropriate software (Bioquant IV, R&M Biometrics, Nashville, Tenn.). Mean values for axonal areas were compared using by ANOVA (STATVIEW, Abacus Concepts, Inc., Berkeley, Calif.). The following table summarizes the results that were obtained.

[2] = system: SW620 (colon); assay: Antineoplastic activity, tumor cell growth inhibition (sulforhodamine B), SW620; details: 48 hours; for IC50: Homo sapiens, SW-620, SW620 cells; for Antineoplastic Activity (IC50): SW620 cells
Source text: (§1) Antineoplastic activity for the compounds of this invention was confirmed by evaluating the antineoplastic activity of representative compounds of this invention (Examples 1-5) against six tumor cell lines in vitro. Briefly, tumor cells from six cell lines were placed in wells of a 96 well microtiter plate. The following tumor cell lines were used: 3T3 (ovarian), 3T3/H2N (ovarian—resistant to cis-platin), A431 (vulva epidermoid origin), SW620 (colon), SKBR3 (breast), and MDA-435 (breast). The tumors cells were grown in the presence of serial dilutions of the compound to be evaluated for 48 hours, and cell growth determined using a calorimetric procedure (sulforhrodamine B). The inhibition of growth was calculated compared to the number of cells at the time of test compound addition.

[3] = system: 3T3 (ovarian); assay: Antineoplastic activity, tumor cell growth inhibition (sulforhodamine B), 3T3; details: 48 hours; for IC50: Mus musculus, NIH3T3, 3T3 cells; for Antineoplastic Activity (IC50): 3T3 cells
Source text: as §1

[4] = system: SKBR3 (breast); assay: Antineoplastic activity, tumor cell growth inhibition (sulforhodamine B), SKBR3; details: 48 hours; for IC50: Homo sapiens, SK-BR-3, SKBR3 cells; for Antineoplastic Activity (IC50): SKBR3 cells
Source text: as §1

[5] = system: MDA-435 (breast); assay: Antineoplastic activity, tumor cell growth inhibition (sulforhodamine B), MDA-435; details: MDA435 cells, 48 hours
Source text: as §1

[6] = system: A431 (vulva epidermoid origin); assay: Antineoplastic activity, tumor cell growth inhibition (sulforhodamine B), A431; details: 48 hours; for IC50: Homo sapiens, A-431, A431 cells; for Antineoplastic Activity (IC50): A431 cells
Source text: as §1

[7] = system: 3T3/H2N (ovarian—resistant to cis-platin); assay: Antineoplastic activity, tumor cell growth inhibition (sulforhodamine B), 3T3/H2N; details: 3T3/H2N cells, 48 hours
Source text: as §1

| Compound | Antineoplastic Activity (IC50) [2] [µg/mL] | Antineoplastic Activity (IC50) [4] [µg/mL] | Antineoplastic Activity (IC50) [5] [µg/mL] | Antineoplastic Activity (IC50) [6] [µg/mL] | Mean Neurite Length after 168 h ([1]; test compound + NGF) | Antineoplastic Activity (IC50) [3] [µg/mL] | Antineoplastic Activity (IC50) [7] [µg/mL] | also measured |
| --- | --- | --- | --- | --- | --- | --- | --- | --- |
| CO[C@H]1C[C@@H]2CC[C@@H](C)[C@@](O)(O2)C(=O)C(=O)N2CCCC[C@H]2C(=O)O[C@H]([C@H](C)C[C@@H]2CC[C@@H](O)[C@H](OC)C2)CC(=O)[C@H](C)/C=C(\C)[C@@H](O)[C@@H](OC)C(=O)[C@H](C)C[C@H](C)/C=C/C=C/C=C/1C [Rapamycin] |  |  |  |  | 261.4 ± 13.1 (n = 119) μm |  |  |  |
| NGF: nerve growth factor (NGF), used alone as control and together with test compounds |  |  |  |  |  |  |  | Mean Neurite Length after 168 h ([1]; NGF alone): 196.5 ± 7.7 (n = 112) μm |
| CO[C@@H](C[C@@H]1CC[C@@H](C)[C@](O)(C(=O)C(=O)N2CCCC[C@H]2C(=O)O[C@@H](CC(=O)[C@H](C)/C=C(\C)[C@@H](O)[C@@H](OC)C(=O)[C@H](C)C[C@H](C)/C=C/C=O)[C@H](C)CC2CC[C@@H](O)[C@H](OC)C2)O1)/C(C)=C/C=O (stereo partly shown) [Example I, Rapamycin Dialdehyde] |  |  |  |  | 229.8 ± 9.5 (n = 141) μm |  |  | IC50 [2]: 1.41 µg/mL (≈ 1.49 µM); IC50 [3]: 0.72 µg/mL (≈ 0.761 µM); IC50 [4]: 0.52 µg/mL (≈ 0.55 µM); IC50 [5]: 1.23 µg/mL (≈ 1.3 µM); IC50 [6]: 0.91 µg/mL (≈ 0.962 µM); IC50 [7]: 0.68 µg/mL (≈ 0.719 µM) |
| CO[C@@H]1[C@H](O)C2(C)OOC1([C@H](C)C[C@H](C)/C=C/C=O)O2 (stereo partly drawn) [III, (2E,4S,6R)-6-[(5S,6R)-5-Hydroxy-6-methoxy-4-methyl-2,3,7-trioxabicyclo[2.2.1]hept-1-yl]-4-methylhept-2-enal] |  |  |  |  |  |  |  | IC50 [2]: > 5 µg/mL; IC50 [3]: 4.11 µg/mL (≈ 14.4 µM); IC50 [4]: 2.05 µg/mL (≈ 7.16 µM); IC50 [5]: 4.13 µg/mL (≈ 14.4 µM); IC50 [6]: 3.01 µg/mL (≈ 10.5 µM); IC50 [7]: > 5 µg/mL |

More lines, main results first:

| Antineoplastic Activity (IC50) [2] [µg/mL] | Antineoplastic Activity (IC50) [4] [µg/mL] | Antineoplastic Activity (IC50) [5] [µg/mL] | Antineoplastic Activity (IC50) [6] [µg/mL] | Compound | Mean Neurite Length after 168 h ([1]; test compound + NGF) | Antineoplastic Activity (IC50) [3] [µg/mL] | Antineoplastic Activity (IC50) [7] [µg/mL] | also measured |
| --- | --- | --- | --- | --- | --- | --- | --- | --- |
| >5 | 2.69 | >5 | >5 | 42-O-(2-Hydroxy)ethyl rapamycin 29-enol [V] |  | >5 | 4.96 |  |
| >5 | >5 | >5 | >5 | Rapamycin 29-enol [Example II] | 239.7 ± 10.0 (n = 155) μm | >5 | >5 |  |
| 3.04 | 0.36 | 1.1 | 2.64 | 42-O-(2-Hydroxy)ethyl rapamycin dialdehyde [IV] |  | 1.5 | 0.72 |  |
